Species: Rattus norvegicus
Experiment: DrugMatrix - Regimen: Daily Repeat
Format: toxicity, organism-based, Sprague-Dawley
Design: regimen Daily Repeat, gender Male, age 6-8 weeks
Conditions: in vivo, po, route oral GAVAGE, […]; for ABSOLUTE BASOPHIL / ABSOLUTE EOSINOPHIL / ABSOLUTE LYMPHOCYTE / ABSOLUTE MONOCYTE / ABSOLUTE SEGMENTED NEUTROPHIL / BASOPHIL / EOSINOPHIL / ERYTHROCYTE COUNT / HEMATOCRIT / HEMOGLOBIN / LEUKOCYTE COUNT / LYMPHOCYTE / MEAN CORPUSCULAR HEMOGLOBIN / MEAN CORPUSCULAR HEMOGLOBIN CONCENTRATION / MEAN CORPUSCULAR VOLUME / MONOCYTE / NEUTROPHIL / NUCLEATED RED BLOOD CELLS / PLATELET COUNT: tissue Blood; for ALANINE AMINOTRANSFERASE / ALBUMIN / ALKALINE PHOSPHATASE / ASPARTATE AMINOTRANSFERASE / BLOOD UREA NITROGEN / CARBON DIOXIDE / CHLORIDE / CHOLESTEROL / CREATINE PHOSPHOKINASE / CREATININE / GLUCOSE / LACTATE DEHYDROGENASE / LIPASE / PHOSPHORUS / POTASSIUM / SODIUM / TOTAL BILIRUBIN / TOTAL PROTEIN / URIC ACID: tissue Plasma
[1] = 0 mg/kg, 72 h, dose level Control, time 3 day
[2] = 0 mg/kg, 120 h, dose level Control, time 5 day
[3] = 4 mg/kg, 72 h, dose level Low, time 3 day

Compound: CSc1ccc2c(c1)N(CCC1CCCCN1C)c1ccccc1S2 (centres undefined) [THIORIDAZINE]
- ABSOLUTE BASOPHIL [1]: 0 CELLS/uL
- ABSOLUTE EOSINOPHIL [1]: 179.67 CELLS/uL
- ABSOLUTE LYMPHOCYTE [1]: 11440.17 CELLS/uL
- ABSOLUTE MONOCYTE [1]: 128.83 CELLS/uL
- ABSOLUTE SEGMENTED NEUTROPHIL [1]: 1051.33 CELLS/uL
- BASOPHIL [1]: 0%
- EOSINOPHIL [1]: 1.33%
- ERYTHROCYTE COUNT [1]: 5.53 x10E6/uL
- HEMATOCRIT [1]: 34.75%
- HEMOGLOBIN [1]: 12.88 G/DL
- LEUKOCYTE COUNT [1]: 12.8 x10E3/uL
- LYMPHOCYTE [1]: 89.5%
- MEAN CORPUSCULAR HEMOGLOBIN [1]: 23.38 pg
- MEAN CORPUSCULAR HEMOGLOBIN CONCENTRATION [1]: 37.12 G/DL
- MEAN CORPUSCULAR VOLUME [1]: 62.88 fL
- MONOCYTE [1]: 1%
- NEUTROPHIL [1]: 8.17%
- NUCLEATED RED BLOOD CELLS [1]: 0 /100WBC
- PLATELET COUNT [1]: 1292 x10E3/uL
- ALANINE AMINOTRANSFERASE [1]: 58.67 u/L
- ALBUMIN [1]: 4.25 G/DL
- ALKALINE PHOSPHATASE [1]: 437.83 u/L
- ASPARTATE AMINOTRANSFERASE [1]: 85.17 u/L
- BLOOD UREA NITROGEN [1]: 14.17 mg/dL
- CARBON DIOXIDE [1]: 28.67 mmol/L
- CHLORIDE [1]: 102.17 MEQ/L
- CHOLESTEROL [1]: 68.5 mg/dL
- CREATINE PHOSPHOKINASE [1]: 271.83 u/L
- CREATININE [1]: 0.2 mg/dL
- GLUCOSE [1]: 156.67 mg/dL
- LACTATE DEHYDROGENASE [1]: 112.33 u/L
- LIPASE [1]: 9.33 u/L
- PHOSPHORUS [1]: 11.1 mg/dL
- POTASSIUM [1]: 6.46 MEQ/L
- SODIUM [1]: 144.37 MEQ/L
- TOTAL BILIRUBIN [1]: 0.23 mg/dL
- TOTAL PROTEIN [1]: 5.8 G/DL
- URIC ACID [1]: 1.55 mg/dL
- ABSOLUTE BASOPHIL [2]: 0 CELLS/uL
- ABSOLUTE EOSINOPHIL [2]: 87 CELLS/uL
- ABSOLUTE LYMPHOCYTE [2]: 14743.5 CELLS/uL
- ABSOLUTE MONOCYTE [2]: 187 CELLS/uL
- ABSOLUTE SEGMENTED NEUTROPHIL [2]: 1499.17 CELLS/uL
- BASOPHIL [2]: 0%
- EOSINOPHIL [2]: 0.5%
- ERYTHROCYTE COUNT [2]: 5.84 x10E6/uL
- HEMATOCRIT [2]: 36.3%
- HEMOGLOBIN [2]: 13.55 G/DL
- LEUKOCYTE COUNT [2]: 16.52 x10E3/uL
- LYMPHOCYTE [2]: 89.5%
- MEAN CORPUSCULAR HEMOGLOBIN [2]: 23.25 pg
- MEAN CORPUSCULAR HEMOGLOBIN CONCENTRATION [2]: 37.35 G/DL
- MEAN CORPUSCULAR VOLUME [2]: 62.27 fL
- MONOCYTE [2]: 1.17%
- NEUTROPHIL [2]: 8.83%
- NUCLEATED RED BLOOD CELLS [2]: 0.17 /100WBC
- PLATELET COUNT [2]: 1233.5 x10E3/uL
- ALANINE AMINOTRANSFERASE [2]: 62.5 u/L
- ALBUMIN [2]: 4.17 G/DL
- ALKALINE PHOSPHATASE [2]: 464.33 u/L
- ASPARTATE AMINOTRANSFERASE [2]: 99.67 u/L
- BLOOD UREA NITROGEN [2]: 14.33 mg/dL
- CARBON DIOXIDE [2]: 26 mmol/L
- CHLORIDE [2]: 102.33 MEQ/L
- CHOLESTEROL [2]: 60.67 mg/dL
- CREATINE PHOSPHOKINASE [2]: 402.5 u/L
- CREATININE [2]: 0.22 mg/dL
- GLUCOSE [2]: 173.5 mg/dL
- LACTATE DEHYDROGENASE [2]: 518.17 u/L
- LIPASE [2]: 10.83 u/L
- PHOSPHORUS [2]: 11.4 mg/dL
- POTASSIUM [2]: 6.13 MEQ/L
- SODIUM [2]: 142.63 MEQ/L
- TOTAL BILIRUBIN [2]: 0.17 mg/dL
- TOTAL PROTEIN [2]: 6.1 G/DL
- URIC ACID [2]: 1.97 mg/dL
- ABSOLUTE BASOPHIL [3]: 0 CELLS/uL
- ABSOLUTE EOSINOPHIL [3]: 0 CELLS/uL
- ABSOLUTE LYMPHOCYTE [3]: 12903.67 CELLS/uL
- ABSOLUTE MONOCYTE [3]: 46 CELLS/uL
- ABSOLUTE SEGMENTED NEUTROPHIL [3]: 817 CELLS/uL
- BASOPHIL [3]: 0%
- EOSINOPHIL [3]: 0%
- ERYTHROCYTE COUNT [3]: 5.52 x10E6/uL
- HEMATOCRIT [3]: 35.4%
- HEMOGLOBIN [3]: 13.13 G/DL
- LEUKOCYTE COUNT [3]: 13.77 x10E3/uL
- LYMPHOCYTE [3]: 93.67%
- MEAN CORPUSCULAR HEMOGLOBIN [3]: 23.8 pg
- MEAN CORPUSCULAR HEMOGLOBIN CONCENTRATION [3]: 37.1 G/DL
- MEAN CORPUSCULAR VOLUME [3]: 64.17 fL
- MONOCYTE [3]: 0.33%
- NEUTROPHIL [3]: 6%
- NUCLEATED RED BLOOD CELLS [3]: 0 /100WBC
- PLATELET COUNT [3]: 1132.33 x10E3/uL
- ALANINE AMINOTRANSFERASE [3]: 50 u/L
- ALBUMIN [3]: 4.1 G/DL
- ALKALINE PHOSPHATASE [3]: 495.33 u/L
- ASPARTATE AMINOTRANSFERASE [3]: 79.67 u/L
- BLOOD UREA NITROGEN [3]: 12 mg/dL
- CARBON DIOXIDE [3]: 28.67 mmol/L
- CHLORIDE [3]: 101.67 MEQ/L
- CHOLESTEROL [3]: 70.67 mg/dL
- CREATINE PHOSPHOKINASE [3]: 382.67 u/L
- CREATININE [3]: 0.17 mg/dL
- GLUCOSE [3]: 176.33 mg/dL
- LACTATE DEHYDROGENASE [3]: 65.33 u/L
- LIPASE [3]: 9.67 u/L
- PHOSPHORUS [3]: 11.5 mg/dL
- POTASSIUM [3]: 6.31 MEQ/L
- SODIUM [3]: 142.93 MEQ/L
- TOTAL BILIRUBIN [3]: 0.2 mg/dL
- TOTAL PROTEIN [3]: 5.57 G/DL
- URIC ACID [3]: 1.93 mg/dL

From ChEMBL document CHEMBL3885881, “DrugMatrix”
